Reference: patent US6482429B1, “Stable powder inhalation dosage formulation” (Boehringer Ingelheim Pharmaceuticals, Inc., priority 2001, dated 2002)

What was measured:
[1] = Relative sintering rates under high relative humidity; format: physicochemical; settings: about 23° C., about one day of exposure, compared with lactose
Protocol: Two experiments were carried out, one at about 85% relative humidity and another at about 95% relative humidity. The experiments ran over several days, but the largest increment occurs fairly early. Both experiments were carried out at room temperature (about 23° C.). […] Sintering of cellobiose is slower. […].

[2] = Particle size distribution measured using the Aerosizer with Pulse Jet Disperser; format: physicochemical; settings: average of three measurements
From the text: The Pulse Jet Disperser device (Amherst Processing Instruments) was used for powder dispersion. Three measurements were made for each sample and the results were averaged.

Relative sintering rate (difference in number fraction Δf versus particle diameter) ([1]; approximately 85% relative humidity) | Relative sintering rate (difference in number fraction Δf versus particle diameter) ([1]; approximately 93% relative humidity) | Compound | Mean Particle Size [2]
slower | slower | O=C[C@H](O)[C@@H](O)[C@H](O[C@@H]1O[C@H](CO)[C@@H](O)[C@H](O)[C@H]1O)[C@H](O)CO [Cellobiose, cellobiose] | 2.032 μm
 |  | O.OC[C@H]1O[C@@H](O[C@H]2[C@H](O)[C@@H](O)C(O)O[C@@H]2CO)[C@H](O)[C@@H](O)[C@H]1O (stereo partly shown) [Lactose, lactose monohydrate, reference compound] | 2.044 μm
